In patent publication US6756526B2, “Drought tolerant plants and methods of increasing drought tolerance in plants” (Kansas State University Research Foundation, priority 2001, dated 2004):
“Also recorded” adds a separate entry of the source.

Columns and labels:
[1] = test system: PLDα-deficient Arabidopsis plants; test: Progressive drought by withholding irrigation, with ABA spray; format: in vivo, Arabidopsis thaliana; conditions: ABA 10 μM sprayed once a day, PLDα-deficient plants under drought
Description: (§1) The depletion of PLDα in guard cells provides a means of assessing the role of PLD in stomatal movement. Stomatal closure was determined by measuring diffusion resistance using a steady-state porometer. Briefly, detached Arabidopsis leaves were floated with the abaxial side downward in a solution containing 5 mM MES-KOH (pH 6.1), 22 mM KCl, and 1 mM CaCl2 for 1 hour under the same light conditions used for growing plants. Leaves then were incubated without or with ABA at indicated concentrations. ABA was made as a 10 mM stock solution in 5% dimethyl sulfoxide (DMSO), and the same amount of DMSO (0.005%) was also added to the control solution in all treatments. Stomatal aperture of detached leaves was measured as diffusion resistance with a steady state porometer using the method of Thimann and S. O. Satler, Relation Between Leaf Senescence and Stomatal Closure: Senescence in Light, 76 Proc. Natl. Acad. Sci. USA, 2295-2298 (1979). For tobacco plants, leaf diffusion resistance was also measured in leaves attached to approximately 2-month-old plants following foliar spraying of ABA at indicated concentrations. Changes in diffusion resistance in response to ABA in both detached and intact leaves were monitored at indicated time intervals. […] Soil moisture in the 0-20 cm soil layer was monitored during drought using a time domain reflectometer. […]

[2] = test system: wild-type Arabidopsis plants; test: as above; format: in vivo, Arabidopsis thaliana; conditions: ABA 10 μM sprayed once a day, wild-type plants under drought
Description: as §1

[3] = test system: PLD; conditions: tissues or guard cells treated with ABA; cited from earlier work
[4] = test system: control tobacco plants (empty vector); test: Leaf diffusion resistance measured directly on plants after foliar ABA spray; format: in vivo, Nicotiana tabacum; conditions: 2.5 and 5 μM ABA sprayed, 20 minutes after application, relative to plants sprayed with water
Description: as §1

[5] = test system: wild-type Arabidopsis leaves; test: Stomatal closure measured as diffusion resistance (steady state porometer) in detached leaves incubated with ABA; format: in vivo, Arabidopsis thaliana
Description: (§2) The depletion of PLDα in guard cells provides a means of assessing the role of PLD in stomatal movement. Stomatal closure was determined by measuring diffusion resistance using a steady-state porometer. Briefly, detached Arabidopsis leaves were floated with the abaxial side downward in a solution containing 5 mM MES-KOH (pH 6.1), 22 mM KCl, and 1 mM CaCl2 for 1 hour under the same light conditions used for growing plants. Leaves then were incubated without or with ABA at indicated concentrations. ABA was made as a 10 mM stock solution in 5% dimethyl sulfoxide (DMSO), and the same amount of DMSO (0.005%) was also added to the control solution in all treatments. Stomatal aperture of detached leaves was measured as diffusion resistance with a steady state porometer using the method of Thimann and S. O. Satler, Relation Between Leaf Senescence and Stomatal Closure: Senescence in Light, 76 Proc. Natl. Acad. Sci. USA, 2295-2298 (1979). For tobacco plants, leaf diffusion resistance was also measured in leaves attached to approximately 2-month-old plants following foliar spraying of ABA at indicated concentrations. Changes in diffusion resistance in response to ABA in both detached and intact leaves were monitored at indicated time intervals. Before drought treatment was imposed, Arabidopsis plants were grown in a greenhouse for 6-8 weeks and watered regularly. Soil water content in each pot was adjusted to approximately the same level before drought treatment. Plants were subjected to drought by withholding irrigation and the soil surface in each pot was covered with plastic wraps to minimize evaporation. Soil moisture in the 0-20 cm soil layer was monitored during drought using a time domain reflectometer. When ABA (10 μM) was sprayed on plants in some treatments, control groups of plants were sprayed with water in the same amount as for the ABA treatment. Leaves were collected at various times of drought treatment, and leaf water potential (ψw) was measured with a thermocouple psychrometer.
(§3) Detached Arabidopsis leaves were floated with the abaxial side downward in a solution containing 5 mM MES-KOH (pH 6.1), 22 mM KCl, and 1 mM CaCl2 for 1 hour under the same light conditions used for growing plants. Leaves then were incubated without or with ABA at indicated concentrations. ABA was made as a 10 mM stock solution in 5% dimethyl sulfoxide (DMSO), and the same amount of DMSO (0.005%) was also added to the control solution in all treatments. Stomatal aperture was measured as diffusion resistance with a steady state porometer (Li-COR 1600, Lincoln, Nebr.). The porometer was set for aperture of 0.5 cm^2, pressure of 100 pa, and relative humidity of 30%. Changes in diffusion resistance were monitored on plants at indicated time intervals.

[6] = test system: PLDα-depleted (antisense) Arabidopsis leaves; test: as above; format: in vivo, Arabidopsis thaliana; conditions: PLDα-suppressed leaves
Description: as §2, §3

[7] = test system: protoplasts of barley aleurone and Vicia faba guard cells; conditions: cited from earlier work
[8] = test system: guard cell protoplasts; conditions: PA applied to guard cell protoplasts; cited from earlier work

Molecule | effect on water loss and drought resistance [1] | effect on drought resistance (leaf turgidity, leaf water potential, soil water content) [2] | PLD activity (and gene expression) after ABA [3] | increase in leaf diffusion resistance [4] | effect on stomatal closure ([5]; 2 μM ABA, wild-type leaves) | increase in diffusion resistance (stomatal closure) ([5]; 10 μM ABA, detached wild-type leaves) | persistence of the ABA effect on diffusion resistance ([5]; 10 μM ABA, wild-type) | effect on stomatal closure ([6]; 2 μM ABA) | ABA-induced increase in diffusion resistance, relative to that observed in wild-type leaves ([6]; 10 μM ABA) | ABA concentration at which diffusion resistance reached a plateau ([6]; 0.5-50 μM ABA tested, 20 minutes) [µM] | effect of PA addition compared with ABA [7] | ionic efflux [8]
CC1=CC(=O)CC(C)(C)[C@@]1(O)/C=C/C(C)=C\C(=O)O [ABA, abscisic acid] | no detectable effect | enhanced resistance to drought; also recorded: improves this drought resistance | increased; also recorded: increases PLD activity | about 30% | stimulated stomatal closure | approximately twofold | more than 30 minutes | no effect | approximately 50% | > 50 | – | –
phosphatidic acid [PA] | – | – | – | – | – | – | – | – | – | – | partially mimicked the effect of ABA | increase in ionic efflux
